We go through one molecule from patent US11974551B2, “L-serine compositions, methods and uses for treating neurodegenerative diseases and disorders” (priority 2011, dated 2024).

One experiment has as its system Drosophila fruit flies. Description: Fruit fly feeding: mortality after three days. It is filed as in vivo, Drosophila melanogaster. To be noted: media with 25 mM BMAA and 25 mM L-Serine, three days. The procedure: Preliminary studies show the ability of L-Serine to prevent misincorporation of BMAA into proteins. In a series of feeding experiments, Drosophila fruit flies were fed four different types of media: 1) standard fruit fly media with 0 mM BMAA (control), 2) media enriched with 25 mM L-Serine, 3) media with 25 mM BMAA added, and 4) media with both 25 mM BMAA and 25 mM L-Serine added for three days of feeding. Misincorporation of BMAA into proteins was then analyzed using triple quadrupole LC/MS/MS and Orbital Trap LC/MS/MS.
Equally interesting is the analysis of the protective value of L-Serine on Drosophila dosed with BMAA. Fruit flies fed with BMAA enriched media (third set of blocks) suffered a 40% mortality after three days, while flies fed with Serine plus BMAA (fourth set of blocks) had no mortality (FIG. 8). These flies were rescued by L-Serine.

The next experiment relates to SH-SY5Y cells. Kind of experiment: Annexin V binding (apoptosis) by flow cytometry. Format: cell-based, human. To be noted: 500 μM BMAA, co-incubation with CHX 2 μg/mL or L-serine 50 μM. On the procedure: Late-stage apoptosis or necrosis was measured by simultaneous staining with propidium iodide and Annexin V using the BD Pharmingen™ Annexin V—FITC apoptosis detection kit and flow cytometry performed as described previously (Dunlop, et al., Biochem J 435, 207-216 (2010)).

Experiment [1] relates to MRC-5 cells. Description: Incorporation of 3H-BMAA radiolabel into cell proteins (TCA precipitation, liquid scintillation counting). The conditions noted are these: 3H-BMAA 31.25 nM, 16 hours. It is filed as cell-based, human. On the procedure:
MRC-5 cells were incubated with ^3H-BMAA (31.25 nM) in HBSS containing 10% FCS. After 2, 4, and 16 hours, cells were washed three times in phosphate buffered saline and lysed by freeze-thawing in Triton X-100. The protein concentration in the lysate was determined using the bicinchoninic acid assay (BCA) (Smith, et al., Anal Biochem 150, 76-85 (1985)) (and radiolabel in the cell lysate quantified by liquid scintillation counting (LSC). Cell proteins were then isolated by trichloroacetic acid (TCA) (5%) precipitation washed three times in TCA (5%) and dissolved in formic acid.
To determine if incorporation of radiolabel into proteins was protein synthesis dependent MRC-5, SH-SY5Y and HUVEC cells were incubated with ^3H-BMAA (31.25 nM) with or without CHX 2 μg/ml for 16 hours. The amount of radiolabel present in cell proteins in the CHM-treated cultures was expressed relative to that of control cultures, which was set at 100%. Parallel cultures of MRC-5 cells were incubated with ^3H-leucine (41 nM) with or without CHX 2 μg/ml under identical culture conditions and processed as before.
To examine the ability of individual amino acids to reduce incorporation or radiolabel into proteins, MRC-5 cells were incubated with ^3H-BMAA (31.25 nM) for 16 hours in the presence of individual amino acids (250 μM) and the radiolabel present in the cell proteins assessed as before. All of the 20 protein amino acids (L-isomers) were examined individually in triplicate cell cultures. […] Incorporation of radiolabel was determined relative to cells incubated in medium containing no serine. MRC-5 cells were then incubated with ^3H-BMAA (31.25 nM) for 16 hours in HBSS alone, HBSS containing all 20 protein amino acids (400 μM) or 19 protein amino acids except L-serine and the amount of radiolabel in cell protein assessed as before.

The test system of experiment [2] is MRC-5 cells. Description: Protein-bound non-labeled BMAA in hydrolysed cell proteins by triple quadrupole LC/MS/MS. It is filed as cell-based, human. The conditions noted are these: BMAA 250-1000 μM with L-serine 250-1000 μM, or CHX. On the procedure: After incubation with ^3H-BMAA or cold BMAA, cells were washed three times with PBS, lysed by freeze thawing in Triton-X-100 (0.1%) and cell proteins precipitated in TCA (5%). Protein pellets were washed three times with TCA (5%) and hydrolysed in boiling 6 M HCl at 110° C. for 16 hours as previously described (Mondo, et al., Mar Drugs 10, 509-520 (2012)). Protein pellets were freeze-dried and reconstituted in 20 mM HCl. Particulates were removed by centrifugation through […] membranes and the hydrolysate derivatized in AccQ·Tag (Waters Corporation, Australia). Amino acids were separated on a Waters C-18 column using a method and gradient as described previously (Mondo, et al., Mar Drugs 10, 509-520 (2012)). For recovery of radiolabel in hydrolysed samples, fractions were collected manually every minute for 40 minutes, diluted into 5 ml scintillant (Ultima Gold™ scintillant, Perkin Elmer) and disintegrations per minute (DPM) determined by LSC.
To further confirm that BMAA was present in cell proteins and incorporation was inhibited by L-serine, MRC-5 cells were incubated with a range of concentrations of BMAA (250-1000 μM) or BMAA with L-serine (250-1000 μM) and hydrolysed cell proteins were analyzed by tandem mass spectroscopy on a triple quadrupole LC/MS/MS. […]

Entries after “also recorded” stand apart in the source; their conditions may differ.

Take `N[C@@H](CO)C(=O)O` [L-serine]: the “mortality of flies fed BMAA plus L-Serine” value is “blocks BMAA induced mortality” with Drosophila fruit flies and “no mortality” with Drosophila fruit flies (listed as L-Serine). The “effect on BMAA-induced Annexin V binding / apoptosis” value in the experiment with SH-SY5Y cells is given as “abrogated; also recorded: significantly reduced”. For the same molecule, the “incorporation of BMAA into proteins when L-serine was omitted from the amino acid mixture” value in the experiment with MRC-5 cells [1] (19 protein amino acids 400 μM without L-serine) is reported as “significantly increased”. Also, the “effect on incorporation of 3H-BMAA into cell proteins” value in the experiment on MRC-5 cells [1] (L-serine 0, 50, 100 and 250 μM) is “inhibited in the presence of L-serine in a concentration-dependent manner; also recorded: inhibition of incorporation of radiolabel into cell proteins”. In addition, the “effect on incorporation of non-labeled BMAA into cell proteins” value in the experiment on MRC-5 cells [2] is “inhibited”.
